melting point [°C] | SMILES
128 to 131 | Cc1cccc(NC(=O)OC(C)(C)C)c1CNc1cccn2c(C)c(C)nc12
106 to 109 | CC(C)C(c1cncnc1C(F)(F)F)N(C)C(=O)Cc1ccccc1 (centres undefined)
103 to 104 | O=C(O)[C@H](Cc1cccc(OC(F)(F)C(F)F)c1)[C@@H](O)c1cccc(F)n1 (racemic)
183 | COc1ccccc1CNc1ccc2cc(Nc3nnc(C)o3)ccc2n1
207 to 209 | O=[N+]([O-])c1ccc(Sc2ncc[nH]2)cc1
184 to 185 | NC(=O)CC1(c2ccccc2)C(=O)Nc2ccccc21 (centres undefined)
174 | COC[C@H]1CN(c2ccc([C@H]3CC[C@H](C#N)CC3)cc2)C(=O)O1
249 to 252 | Oc1cc2c3ccc(O)c(O)c3n(Cc3ccc(Br)cc3)c2cc1O
157 to 160 | COC(=O)/C(C#N)=C/c1cc(OC)c(OCCCl)cc1[N+](=O)[O-]
156 to 157 | O[C@H]1c2cc(OCc3ccc4ccccc4c3)ccc2OC[C@H]1Oc1cccnc1 (relative stereo)
112 to 114 | Fc1ccc(C2OC3(CCNCC3)N3CCCCC23)cc1 (centres undefined)
68 to 69 | COC(=O)c1cccc(Oc2cccc(Br)n2)c1
195 to 196 | CCOC(=O)c1cnn(-c2ccc(OC)c(C#N)c2)c1N
102 to 103 | Nc1ccccc1-c1ccc(C(O)CCC(=O)O)cc1 (centres undefined)
160 to 162 | CC(=O)Nc1ccc(S(=O)c2ccc(Cl)cc2)cc1 (centres undefined)
95 to 97 | Cc1ccc(S(=O)(=O)N2CCOC(C)(C)C2)cc1
60 to 61 | Cc1cc(C(F)(F)F)c2cccc(O)c2n1

melting point [°C] | SMILES
186 to 187 | OC1(c2cccc(Cl)c2)C2=NCCCN2c2ccccc21 (centres undefined)
220 to 222 | Cc1ccc(CSc2nc3cc4c(cc3[nH]2)C(C)(C)C(=O)C4(C)C)nc1
142 to 143 | COC(=O)c1cccc(-c2nc(-c3ccc(C(F)(F)F)cc3)cs2)c1
172 to 174 | COc1ccc(-n2nc(CC(C)(C)C(=O)O)cc2-c2ccc(Cl)cc2)cc1
138 to 140 | CCC(=O)c1ccc(=O)[nH]c1CC
110 | COC(=O)C1=C(C)NC(C)=C(C(=O)OCCOc2ccc(CCOC(C)=O)cc2)C1c1cccc([N+](=O)[O-])c1 (centres undefined)
88 to 90 | COc1ccc(OCc2ccccc2)cc1CBr
64 to 66 | COC1=C(OC)C(=O)C2=C(CC(CCCCCCCCOc3ccc(Cl)cc3)C2)C1=O
101 | COc1ccc(-c2nc(Sc3cccc(OC)c3)[nH]c2-c2ccc(OC)cc2)cc1
64 | CCN(CC)C(=O)Oc1cc(-c2ccccc2)c2ccccc2n1
135 to 137 | CC(C)(C)OC(=O)n1ccc2cc([N+](=O)[O-])ccc21
31 to 32 | COC(=O)c1cccn1Cc1ccccc1
215 to 217 | O=C(O)c1c(O)c(-c2ccc(-c3ccccc3)cc2)nc2c(Cl)cc(Cl)cc12
157 to 161 | O=c1c2c(n(-c3cccc(Cl)c3)c3ncccc13)CCN(Cc1ccccc1)C2
129 | ClCc1c(Cl)ccc2cc(Cl)cnc12
194 to 195 | C=Cc1cnc2c(NC(=O)c3c(Cl)cccc3Cl)cccc2c1CC(=O)NCc1ccccn1
199 to 201 | CS(=O)(=O)c1ccc(C(CC2CCOCC2)c2ccc(-c3nnc(CO)s3)[nH]2)cc1 (centres undefined)

The next lines start with the compound.

SMILES | melting point [°C]
COc1ccc2[nH]nc(N3CCN(CCCc4c(C)[nH]c5ccccc45)CC3)c2c1 | 145 to 147
CCNC(=O)Nc1ccc(-c2sc3c(c2CN(C)C(C)C)c(=O)n(-c2ccccc2)c(=O)n3Cc2c(F)cccc2F)cc1 | 208 to 210
O=c1c2cc(Br)ccc2nc(CSc2ncnc3[nH]cnc23)n1-c1ccccc1Cl | 212 to 242
CSc1nc(Br)cc(Br)n1 | 82 to 84
O=C1c2ccccc2C(=O)N1CC(=O)N1c2ccccc2N(Cc2ccccc2)C[C@@H]2CCC[C@H]21 (relative stereo) | 232 to 234
CC(C)CCCC(C)C1CCC2C3CC(Br)=C4CC(O)CCC4(C)C3CCC12C (centres undefined) | 155
Cc1ccc2c(c1)CSc1nnc(C)n1-2 | 168
CC(C)(C)c1cc(Cl)nc(N)n1 | 87.7 to 88.9
O=C1Cc2cc(NC(=O)C(=O)N3CCC(Oc4ccccc4)CC3)ccc2N1 | 78 to 81
COc1ccc(N2CCOCC2)c2sc(-c3nc4c([nH]3)CCN(CC(N)=O)CC4)nc12 | 299 to 302
O=C1c2ccccc2C(=O)N1Cc1noc(-c2ncn3c2[C@@H]2CCN2C(=O)c2c-3ccc(F)c2Cl)n1 | 292 to 294
CCOc1ccc(C(OC2CCN(CCCCCC(=O)O)CC2)c2ccccc2)cc1 (centres undefined) | 110 to 112
N=C(N)Nc1c(Cl)cccc1Cl | 213
COC(=O)[C@H](CO)NC(=O)[C@H](CS)NC(C)=O | 127 to 128
O=C(O)c1cc(=O)c2cccc(/C=C/c3ccc(OCCCCc4ccc(F)cc4)cc3)c2o1 | 161 to 162
COc1cc(O)c2c(c1)CCC1C2CCC2(C)C(=O)CCC12 (centres undefined) | 220 to 222
CCCCN(Cc1ccc(-c2ccccc2-c2nnn[nH]2)cc1)c1ncncc1C(=O)OC(C)OC(=O)C(C)(C)C (centres undefined) | 71 to 85
COC(=O)CN(C(=O)OC)C1CN(C(=O)Nc2ccc(C(F)(F)F)cc2)N=C1c1ccc(Cl)cc1 (centres undefined) | 198 to 200

SMILES | melting point [°C]
CC(C)(C)N1CC(=O)Nc2ccc(I)cc2C1=O | 230 to 232
Nc1nc2cc(Cl)c(Cl)cc2nc1Br | 232 to 234
CC=CCn1c(C)c(C)c2cnnc(OCc3c(Cl)cccc3Cl)c21 | 133 to 140
CCCCc1cc(OCc2ccc(-c3ccccc3C(=O)OC)cc2)c2ccccc2n1 | 105
CCOCc1c2c(n(Cc3ccccc3)c1-c1ccccc1)C(C)CN(Cc1ccccc1)C2 (centres undefined) | 96 to 98
CCOc1ccc2ccccc2c1C(=O)N1CCC(NS(=O)(=O)c2cc(S(=O)(=O)c3ccccc3)ccc2C(C)C)CC1 | 164 to 166
O=C(Nc1ccc2nc(CN3CCCCC3)ccc2c1)c1ccc(-c2ccccc2)cc1 | 186 to 188
COc1ccc(F)cc1C(=O)NC1Cc2cc(S(=O)(=O)NC(=S)NC(C)C)c(OC)cc2OC1(C)C (centres undefined) | 156 to 157
CCCCOc1c(CNC(=O)OC(C)(C)C)n(CC(C)C)c(=O)c2ccc(O)cc12 | 185 to 186
CCON=C(C(C)=NOCc1ccccc1C(=NOC)C(=O)NC)c1ccc(OCc2cccc(C(F)(F)F)c2)cc1 | 130 to 132
NC(=O)c1ncn2c1CN=C(c1ccccc1)c1cc(Cl)ccc1-2 | 295 to 296
CCCCN(C)CCc1ccc(Nc2ncc3c(n2)-c2ccccc2C(c2ccccc2C(F)(F)F)C3)cc1 (centres undefined) | 80 to 82
CNC(=O)c1cccc(F)c1Nc1nc(Nc2ccc3c(c2)N(CCOC)C(=O)CCC3)ncc1Cl | 199 to 204
O=C1CCC(N2C(=O)c3cccc(OCc4ccc(CN5CCN(c6ccc(F)cc6)CC5)cc4)c3C2=O)C(=O)N1 (centres undefined) | 135 to 137
CC1OC(=O)C(C)C(NC(=O)OCc2ccccc2)C1C(=O)OCc1ccccc1 (centres undefined) | 110 to 112
CC1(C)C(=O)Nc2cc3[nH]c(C4CCCCC4)nc3cc21 | 315 to 318
O=C(NC1(C(=O)O)CCCC1)C(CS)Cc1ccccc1 (centres undefined) | 165 to 167
